{
  "source": "patent US6417187B2",
  "about": "“1,2,4-triazole based compounds that can be used as insecticides or acaricides and processes” (Dow AgroSciences LLC, priority 2000, dated 2002)",
  "assay_type_in_all_cases": "in vivo",
  "key": {"[1]": {"test_system": "Green Leafhopper (Nephotettix cincticeps)", "test": "Insecticidal test for Green Leafhopper (rice seedling roots in test solution)", "conditions": "10 ppm test solution, rice seedling roots, 3rd instar nymphs, mortality at 6 days"}, "[2]": {"test_system": "Brown Planthopper (Nilaparvata lugens)", "test": "Insecticidal test for Brown Planthopper (rice seedling roots in test solution)", "conditions": "10 ppm test solution, rice seedling roots, 3rd instar nymphs, mortality at 6 days"}, "[3]": {"test_system": "cabbage looper (Trichoplusia ni)", "test": "Insecticidal test for cabbage looper (cabbage leaf-disc dip)", "conditions": "400 ppm, cabbage leaf-dip, 2nd instar larvae, 5 days"}, "[4]": {"test_system": "cotton aphid (Aphis gossvpii)", "test": "Insecticidal test for cotton aphid (squash cotyledon spray)", "conditions": "50 ppm spray on infested squash cotyledons, 3 days, population reduction versus untreated; for pest or weed control at 50 ppm: 72 h, read-out: CA: activity at 50 ppm against cotton aphid (% Control rating)"}, "[5]": {"test_system": "Sweetpotato Whitefly (Bemisia tabacia)", "test": "Insecticidal test for Sweetpotato Whitefly (cotton plant spray)", "conditions": "200 ppm spray on cotton plants, 13 days, reduction of large nymphs"}, "[6]": {"test_system": "beet armyworm (Spodoptera exigua)", "test": "Insecticidal test for beet armyworm (treated lepidopteran diet)", "conditions": "400 ppm, treated diet, second-instar larvae, 5 days"}},
  "data": [
    {"smiles": "C#Cc1sc(-c2nc(-c3c(F)cccc3Cl)nn2C)c(Cl)c1Cl", "note": "[Compound 2, 1-Methyl-3-(2-chloro-6-fluorophenyl)-5-(3,4-dichloro-5-ethynvl-thien-2-yl)[1,2,4]triazole]", "values": [
      {"measurement": "GLH: activity at 10 ppm against green leafbopper (% Control rating)", "setting": "[1]", "value": "F (less than 50)"},
      {"measurement": "BPH: activity at 10 ppm against brown planthopper (% Control rating)", "setting": "[2]", "value": "D (60-69)"},
      {"measurement": "pest or weed control at 400 ppm", "setting": "[3]; Trichoplusia ni, 120 h, read-out: CL: activity at 400 ppm against cabbage looper (% Control rating)", "value": "< 50", "unit": "%"},
      {"measurement": "pest or weed control at 50 ppm", "setting": "[4]", "value": "60 to 69", "unit": "%"}
    ]},
    {"smiles": "Cc1ccsc1C#Cc1sc(-c2nc(-c3c(F)cccc3Cl)nn2C)c(Cl)c1Cl", "note": "[Compound 36]", "values": [
      {"measurement": "GLH: activity at 10 ppm against green leafbopper (% Control rating)", "setting": "[1]", "value": "D (60-69)"},
      {"measurement": "WF: activity at 200 ppm against whitefly (% Control rating)", "setting": "[5]", "value": "F (less than 50)"},
      {"measurement": "BPH: activity at 10 ppm against brown planthopper (% Control rating)", "setting": "[2]", "value": "D (60-69)"},
      {"measurement": "CL: activity at 400 ppm against cabbage looper (% Control rating)", "setting": "[3]", "value": "A (90-100)"},
      {"measurement": "CA: activity at 50 ppm against cotton aphid (% Control rating)", "setting": "[4]", "value": "E (50-59)"}
    ]},
    {"smiles": "CCOc1ccc(C#Cc2sc(-c3nc(-c4c(F)cccc4Cl)nn3C)c(Cl)c2Cl)cc1F", "note": "[Compound 60]", "values": [
      {"measurement": "BAW: activity at 400 ppm against beet armyworm (% Control rating)", "setting": "[6]", "value": "A (90-100)"},
      {"measurement": "WF: activity at 200 ppm against whitefly (% Control rating)", "setting": "[5]", "value": "E (50-59)"},
      {"measurement": "CL: activity at 400 ppm against cabbage looper (% Control rating)", "setting": "[3]", "value": "A (90-100)"},
      {"measurement": "CA: activity at 50 ppm against cotton aphid (% Control rating)", "setting": "[4]", "value": "F (less than 50)"}
    ]},
    {"smiles": "Cn1nc(-c2c(F)cccc2Cl)nc1-c1sc(C#Cc2cnc(N3CCOCC3)nc2)c(Cl)c1Cl", "note": "[Compound 63]", "values": [
      {"measurement": "BAW: activity at 400 ppm against beet armyworm (% Control rating)", "setting": "[6]", "value": "D (60-69)"},
      {"measurement": "WF: activity at 200 ppm against whitefly (% Control rating)", "setting": "[5]", "value": "F (less than 50)"},
      {"measurement": "CL: activity at 400 ppm against cabbage looper (% Control rating)", "setting": "[3]", "value": "A (90-100)"}
    ]},
    {"smiles": "Cn1nc(-c2c(F)cccc2Cl)nc1-c1sc(C#Cc2cnc(N3CCCCC3)nc2)c(Cl)c1Cl", "note": "[Compound 64]", "values": [
      {"measurement": "BAW: activity at 400 ppm against beet armyworm (% Control rating)", "setting": "[6]", "value": "B (80-89)"},
      {"measurement": "WF: activity at 200 ppm against whitefly (% Control rating)", "setting": "[5]", "value": "F (less than 50)"},
      {"measurement": "CL: activity at 400 ppm against cabbage looper (% Control rating)", "setting": "[3]", "value": "A (90-100)"}
    ]},
    {"smiles": "Cn1nc(-c2c(F)cccc2Cl)nc1-c1ccc(C#Cc2ccccc2)s1", "note": "[Compound 68]", "values": [
      {"measurement": "GLH: activity at 10 ppm against green leafbopper (% Control rating)", "setting": "[1]", "value": "F (less than 50)"},
      {"measurement": "WF: activity at 200 ppm against whitefly (% Control rating)", "setting": "[5]", "value": "F (less than 50)"},
      {"measurement": "BPH: activity at 10 ppm against brown planthopper (% Control rating)", "setting": "[2]", "value": "F (less than 50)"},
      {"measurement": "CA: activity at 50 ppm against cotton aphid (% Control rating)", "setting": "[4]", "value": "A (90-100)"}
    ]},
    {"smiles": "CCCc1ccc(C#Cc2sc(-c3nc(C)nn3C)c(Cl)c2Cl)cc1", "note": "[Compound 75]", "values": [
      {"measurement": "GLH: activity at 10 ppm against green leafbopper (% Control rating)", "setting": "[1]", "value": "F (less than 50)"},
      {"measurement": "WF: activity at 200 ppm against whitefly (% Control rating)", "setting": "[5]", "value": "F (less than 50)"},
      {"measurement": "BPH: activity at 10 ppm against brown planthopper (% Control rating)", "setting": "[2]", "value": "C (70-79)"},
      {"measurement": "CA: activity at 50 ppm against cotton aphid (% Control rating)", "setting": "[4]", "value": "F (less than 50)"}
    ]},
    {"smiles": "CCCc1ccc(C#Cc2sc(-c3nc(-c4ccccc4F)nn3C)c(Cl)c2Cl)cc1", "note": "[Compound 76]", "values": [
      {"measurement": "BAW: activity at 400 ppm against beet armyworm (% Control rating)", "setting": "[6]", "value": "A (90-100)"},
      {"measurement": "GLH: activity at 10 ppm against green leafbopper (% Control rating)", "setting": "[1]", "value": "F (less than 50)"},
      {"measurement": "WF: activity at 200 ppm against whitefly (% Control rating)", "setting": "[5]", "value": "F (less than 50)"},
      {"measurement": "BPH: activity at 10 ppm against brown planthopper (% Control rating)", "setting": "[2]", "value": "F (less than 50)"}
    ]},
    {"smiles": "Cc1nc(-c2sc(C#Cc3ccc(F)cc3)c(Cl)c2Cl)n(C)n1", "note": "[Compound 78]", "values": [
      {"measurement": "pest or weed control at 400 ppm", "setting": "[6]; Spodoptera exigua, 120 h, read-out: BAW: activity at 400 ppm against beet armyworm (% Control rating)", "value": "90 to 100", "unit": "%"},
      {"measurement": "GLH: activity at 10 ppm against green leafbopper (% Control rating)", "setting": "[1]", "value": "F (less than 50)"},
      {"measurement": "pest or weed control at 200 ppm", "setting": "[5]; Bemisia, 312 h, read-out: WF: activity at 200 ppm against whitefly (% Control rating)", "value": "60 to 69", "unit": "%"},
      {"measurement": "BPH: activity at 10 ppm against brown planthopper (% Control rating)", "setting": "[2]", "value": "F (less than 50)"},
      {"measurement": "pest or weed control at 50 ppm", "setting": "[4]", "value": "< 50", "unit": "%"}
    ]},
    {"smiles": "Cn1nc(-c2ccccc2F)nc1-c1sc(C#Cc2ccc(F)cc2)c(Cl)c1Cl", "note": "[Compound 79]", "values": [
      {"measurement": "GLH: activity at 10 ppm against green leafbopper (% Control rating)", "setting": "[1]", "value": "F (less than 50)"},
      {"measurement": "WF: activity at 200 ppm against whitefly (% Control rating)", "setting": "[5]", "value": "D (60-69)"},
      {"measurement": "BPH: activity at 10 ppm against brown planthopper (% Control rating)", "setting": "[2]", "value": "F (less than 50)"},
      {"measurement": "CA: activity at 50 ppm against cotton aphid (% Control rating)", "setting": "[4]", "value": "F (less than 50)"}
    ]}
  ]
}
